Reference: US20190225647A1, “ANTIGENIC PEPTIDES FOR THE DIAGNOSIS, THERAPY MONITORING AND/OR TREATMENT OF PSORIASIS VULGARIS” (Ludwig-Maximilians-Universität München, priority 2015, published 2019)

B1: IFN-γ: interferon-γ, increases the expression of HLA-class I molecules (protein, UniProt P01579 24-161, looked up)
Interferon gamma: QDPYVKEAENLKKYFNAGHSDVADNGTLFLGILKNWKEESDRKIMQSQIVSFYFKLFKNFKDDQSIQKSVETIKEDMNVKFFNSNKKKRDDFEKLTNYSVTDLNVQRKAIHELIQVMAELSPAAKTGKRKRSQMLFRG

Legend:
[1] = tested on: CD8+ T cells from psoriasis patients; experiment: Staining of PBMC from psoriasis patients with FITC-labelled HLA-C*06:02-peptide dextramers; type: binding, human; conditions: flow cytometry
Experimental: We used FITC-labelled HLA-C*06:02-peptide dextramers to stain CD8^+ T cells from psoriasis patients. […] Thus, the peptides can be used in complex with HLA-C dextramers to address autoreactive T cells in blood of psoriasis patients. • Autoantigenic peptides complexed with HLA-C*06:02-multimers can be used to identify autoreactive CD8^+ T cells in psoriasis. […]
Fluorescent dextramers were prepared of HLA-C*06:02 and antigenic or control peptides. […] PBMC from psoriasis patients were incubated with standard dilutions of the HLA-C*06:02-peptide dextramers and a phycoerythrin-labelled CD8 antibody and the frequency of double stained cells subsequently determined by flow cytometry on a FACScan flow cytometer. Data were analyzed by FlowJo software 887.

[2] = tested on: HLA-class I; type: cell-based; conditions: HLA-C*06:02-positive primary human melanocytes preincubated with IFN-γ
Excerpt: When assessing the results given below, however, it needs to be considered that the percentage of activated i.e. green-fluorescing cells in this complex cell-based recombinant assay may differ between different experiments. It may be influenced by the stability of the respective hybridoma cell batch and, in co-culture experiments, by the quantitative ratio of stimulatory and hybridoma cells, which decides the probability of cell-cell contacts (Siewert et al., 2011).
We isolated primary melanocytes from the skin and seeded them in explant culture. Cell type was confirmed by the contents of brownish melanosomes and staining with a p75-specific antibody against melanocytes. […] This effect was further enhanced, when HLA-C*06:02-positive melanocytes were preincubated with interferon (IFN)-γ, which increases the expression of HLA-class I molecules (FIG. 2C). […] TCR-hybridoma activation was HLA-restricted.
(B) TCR-hybridoma activation by HLA-C*06:02-positive (left) or HLA-C*06:02-negative (right) primary human melanocytes (MC) in the absence or presence of IFN-γ or a HLA-class I blocking antibody. Frequency of NFAT-sGFP^+ hybridoma cells was assessed by flow cytometry and normalized to the maximum value induced by CD3 activation in the same experiment. […]

Row | Molecule | staining / binding of CD8+ blood T cells by HLA-C*06:02-peptide dextramers [1] | effect of IFN-γ addition on TCR-hybridoma activation [2]
1 | VRHDGGNVL [unrelated peptide (Falk et al., 1993), HLA-C*06:02 ligand, negative control complexed with HLA-C*06:02-dextramers] | did not bind | –
2 | B1 | – | increased
